Source: patent US20260250337A1, “HYBRID ANTIMICROBIAL PEPTIDES” (UNIVERSIDADE FEDERAL DO ABC, priority 2023, published 2026)
No end group written: not given here.

Key:
[1] = tested on: C. albicans MDM8; assay: Liquid growth inhibition assay, MIC (antifungal); assay type: cell-based, Candida albicans; conditions: 37° C., 24 h
How it was run: (§1)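 Peptides were tested in two-fold serial dilutions (0.09-50 μmol L^−1) in Peptone Broth for bacteria or Potato Dextrose Broth for fungi. Plates were incubated at 37° C. for 18 h (bacteria) or 24 h (fungi), and growth was read as absorbance at 595 nm.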

[2] = tested on: E. coli AIC221; assay: Broth microdilution MIC, ESKAPE pathogens; assay type: cell-based; conditions: LB, 37° C., 24 h
Method: (§2) Method. The minimal inhibitory concentration (MIC) against the ESKAPE pathogens was determined using the broth microdilution method^81, 82 in Luria-Bertani (LB) medium. The MIC value was defined as the lowest concentration of peptide at which no microbial growth was observed. A. baumannii ATCC19606, E. coli ATCC11775, E. coli AIC221, E. coli AIC222, K. pneumoniae ATCC13883, S. aureus ATCC12600 P. aeruginosa PAO1, and P. aeruginosa PA14 were incubated on agar plates, and after 24 h, three isolated colonies were inoculated to 5 mL of Luria-Bertani (LB) broth and maintained at 37° C. overnight with shaking. Peptides were then added to 96-well polystyrene microtiter plates at concentrations ranging from 0 to 128 μmol L^−1, and 5×10^5 CFU mL^−1 of each bacterium was inoculated in each well. The plates were incubated at 37° C. for 24 h. Bacterial growth was measured using a microplate reader at 610 nm. Three independent replicates were performed.

[3] = tested on: P. aeruginosa PA14; assay: Broth microdilution MIC, ESKAPE pathogens; assay type: cell-based; conditions: LB, 37° C., 24 h
Method: as §2

[4] = tested on: P. aeruginosa PAO1; assay: Broth microdilution MIC, ESKAPE pathogens; assay type: cell-based; conditions: LB, 37° C., 24 h
Method: as §2

[5] = tested on: E. coli AIC222; assay: Broth microdilution MIC, ESKAPE pathogens; assay type: cell-based; conditions: LB, 37° C., 24 h
Method: as §2

[6] = tested on: A. baumannii ATCC19606; assay: Broth microdilution MIC, ESKAPE pathogens; assay type: cell-based; conditions: LB, 37° C., 24 h
Method: as §2

[7] = tested on: K. pneumoniae ATCC13883; assay: Broth microdilution MIC, ESKAPE pathogens; assay type: cell-based; conditions: LB, 37° C., 24 h
Method: as §2

[8] = tested on: E. coli ATCC11775; assay: Broth microdilution MIC, ESKAPE pathogens; assay type: cell-based; conditions: LB, 37° C., 24 h
Method: as §2

[9] = tested on: S. aureus ATCC12600; assay: Broth microdilution MIC, ESKAPE pathogens; assay type: cell-based; conditions: LB, 37° C., 24 h
Method: as §2

[10] = tested on: S. marcescens ATCC 4112; assay: Liquid growth inhibition assay, MIC; assay type: cell-based, Serratia marcescens; conditions: 37° C., 18 h
How it was run: as §1

[11] = tested on: B. megaterium ATCC 10778; assay: Liquid growth inhibition assay, MIC; assay type: cell-based, Bacillus megaterium; conditions: 37° C., 18 h
How it was run: as §1

[12] = Circular dichroism, helical fraction (Lifson-Roig); assay type: physicochemical; conditions: peptide 50 μmol L^−1; for Helical fraction (fH) PBS: PBS 10 mmol L^−1, pH 7.4; for Helical fraction (fH) POPC: POPC 10 mmol L^−1; for Helical fraction (fH) POPC:DOPE: POPC:DOPE 3:1, mol:mol; for Helical fraction (fH) POPC:DOPE / Helical fraction (fH) POPC:POPG: 10 mmol L^−1; for Helical fraction (fH) POPC:POPG: POPC:POPG 3:1, mol:mol; for Helical fraction (fH) SDS: SDS 20 mmol L^−1 in water; for Helical fraction (fH) TFE/Water: TFE in water (3:2, v:v)
Method: Method. Circular dichroism (CD) assays were performed with a Spectropolarimeter Jasco Mod. J-815 (JascoCorp). CD spectra were obtained in Far-UV (195-260 nm), and analyzed in the following solutions: water, 2,2,2-trifluoroethanol (TFE) in water (3:2, v:v), phosphate buffer saline (PBS, 10 mmol L^−1, pH 7.4), sodium dodecyl sulfate (SDS 20 mmol L^−1) in water, palmitoyloleoylphosphatidylcholine (POPC; 10 mmol L^−1), palmitoyloleoylphosphatidylcholine:dioleylphosphatidylethanolamine (POPC:DOPE; 3:1, mol:mol, 10 mmol L^−1) and palmitoyloleoylphosphatidylcholine:palmitoyloleoylphosphatidylglycerol (POPC:POPG; 3:1, mol:mol, 10 mmol L^−1) at a peptide concentration of 50 μmol L^−1. These experiments were performed as described in detail by Pedron et al.^62.

[13] = tested on: C. tropicalis IOC 4560; assay: Liquid growth inhibition assay, MIC (antifungal); assay type: cell-based, Candida tropicalis; conditions: 37° C., 24 h
How it was run: as §1

[14] = tested on: Plasmodium gallinaceum sporozoites; assay: Antiplasmodial activity, fluorescence microscopy; assay type: cell-based; conditions: for P. gallinaceum (% sporozoites at 0.8 μmol L^−1): fluorescent (propidium iodide stained) sporozoites, 37° C., 1 h; for antiplasmodial activity: P. gallinaceum sporozoites, concentration range tested
Method: Method. The activity of the peptides against Plasmodium gallinaceum sporozoites was determined by fluorescence microscopy, as previously described by Silva et. al.^83. Briefly, 9,000 sporozoites were isolated from the glands of infected Aedes aegypti mosquitos and incubated with serially diluted peptides (ranging from 0.1 to 1.6 μmol L^−1) at 37° C. for 1 h. A PBS solution and the surfactant digitonin^84, 85 were used as negative and positive controls, respectively. Propidium iodide was used to stain dead cells. Assays were executed using fluorescence microscopy. Three biological repeats each with three different mosquito batches (n=9) were used.

[15] = tested on: E. cloacae β-12; assay: Liquid growth inhibition assay, MIC; assay type: cell-based, Enterobacter cloacae; conditions: 37° C., 18 h
How it was run: as §1

[16] = tested on: human erythrocytes; assay: Hemolytic activity assay; assay type: cell-based; conditions: human erythrocytes, 1 h; for MHC: room temperature, concentration with approximately 0% of hemolytic activity
How it was run: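 Fresh heparinised human erythrocytes incubated with peptide at 0.1 to 100 μmol L−1 for 1 h at room temperature; supernatant absorbance at 405 nm after centrifugation. MHC taken as highest concentration with 100% erythrocytes viable; SDS and PBS as positive and negative controls, three biological repeats.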

[17] = tested on: M. luteus A270; assay: Liquid growth inhibition assay, MIC; assay type: cell-based, Micrococcus luteus; conditions: 37° C., 18 h
How it was run: as §1

[18] = tested on: S. epidermidis ATCC 12228; assay: Liquid growth inhibition assay, MIC; assay type: cell-based; conditions: 37° C., 18 h

Row | Substance | MIC C. albicans MDM8 [1] | MIC E. coli AIC221 [2] | MIC P. aeruginosa PA14 [3] | MIC E. coli AIC222 [5] | MIC A. baumannii ATCC19606 [6] | MIC K. pneumoniae ATCC13883 [7] | MIC E. coli ATCC11775 [8] | MIC S. aureus ATCC12600 [9] | MIC S. marcescens ATCC 4112 [10] | MIC B. megaterium ATCC 10778 [11] | Helical fraction (fH) PBS [12] | Helical fraction (fH) POPC [12] | Helical fraction (fH) POPC:DOPE [12] | Helical fraction (fH) POPC:POPG [12] | Helical fraction (fH) SDS [12] | Helical fraction (fH) TFE/Water [12] | Helical fraction (fH) Water [12] | MIC C. tropicalis IOC 4560 [13] | P. gallinaceum (% sporozoites at 0.8 μmol L^−1) [14] | MIC E. cloacae β-12 [15] | further results
1 | FLGALWNVAKSVF-NH2 [VmCT1, Phe-Leu-Gly-Ala-Len-Trp-Asu-Val-Ala-Lys-Ser-Val-Phe, reference compound] | 12.5 µM | 32 µM | 128 µM | 16 µM | 8 µM | 64 µM | 16 µM | 8 µM | 0.4 µM | 1.6 µM | 0.03 | 0.42 | 0.55 | 0.25 | 0.17 | 0.30 | 0.05 | 12.5 µM | 93% | >50 µM | MIC P. aeruginosa PAO1 [4]: 128 µM; MHC [16]: 6.3 µmol/L; MIC M. luteus A270 [17]: 0.8 µM; MIC S. epidermidis ATCC 12228 [18]: 3.1 µM
2 | FLPLLWRVASGVF-NH2 [VT, Phe-Leu-Pro-Leu-Leu-Trp-Arg-Val-Ala-Ser-Gly-Val-Phe] | 12.5 µM | 128 µM | 128 µM | 32 µM | 16 µM | 128 µM | 64 µM | 4 µM | 12.5 µM | 6.3 µM | 0.18 | 0.45 | 0.42 | 1.00 | 0.82 | 1.00 | 0.21 | 25 µM | 2% | >50 µM | MIC P. aeruginosa PAO1 [4]: 128 µM; antiplasmodial activity [14]: did not exhibit significant antiplasmodial activity; Hemolytic activity, concentration of peptide needed to kill 10% of red blood cells [16]: 0.2 µmol/L; MHC [16]: 0.2 µmol/L; MIC M. luteus A270 [17]: 3.1 µM; MIC S. epidermidis ATCC 12228 [18]: >50 µM
3 | ILGAILNVLKSLG-NH2 [PV, Ile-Leu-Gly-Ala-Ile-Leu-Asn-Val-Leu-Lys-Ser-Leu-Gly] | 12.5 µM | 32 µM | 128 µM | 16 µM | 32 µM | 64 µM | 32 µM | 16 µM | 12.5 µM | 12.5 µM | 0.08 | 0.44 | 0.28 | 0.63 | 0.60 | 0.68 | 0.13 | 6.3 µM | 41% | >50 µM | Hemolytic activity, concentration of peptide needed to kill 10% of red blood cells [16]: 25 µmol/L; MHC [16]: 25 µmol/L; MIC M. luteus A270 [17]: 3.1 µM; MIC S. epidermidis ATCC 12228 [18]: >50 µM
4 | FLGAIGNVLKSIL-NH2 [TV, Phe-Leu-Gly-Ala-Ile-Gly-Asn-Val-Leu-Lys-Ser-Ile-Leu] | 25 µM | 16 µM | 128 µM | 8 µM | 16 µM | 16 µM | 32 µM | 16 µM | 6.3 µM | 6.3 µM | 0.04 | 0.12 | 0.35 | 0.06 | 0.28 | 0.50 | 0.04 | 3.1 µM | 83% | >50 µM | MIC P. aeruginosa PAO1 [4]: 128 µM; antiplasmodial activity [14]: exhibited antiplasmodial activity; Hemolytic activity, concentration of peptide needed to kill 10% of red blood cells [16]: 0.2 µmol/L; MHC [16]: 0.2 µmol/L; MIC M. luteus A270 [17]: 6.3 µM; MIC S. epidermidis ATCC 12228 [18]: >50 µM
